Assay results from paper PMC5218480 (PLoS ONE, 2017).

Tested on: MV-4-11 cells
Assay: Gene expression microarray analysis (Affymetrix PrimeView) and GSEA
Type: cell-based, human
Set-up: RFU PODN (11730768_x_at) / Fold change /veh PODN (11730768_x_at) / RFU LINC00158 (11744669_a_at) / Fold change /veh LINC00158 (11744669_a_at) / RFU DUSP10 (11751237_a_at) / Fold change /veh DUSP10 (11751237_a_at) / RFU ID3 (11757404_x_at) / Fold change /veh ID3 (11757404_x_at) / RFU PLEKHG5 (11737974_s_at) / Fold change /veh PLEKHG5 (11737974_s_at) / RFU LRRC4B (11730491_at) / Fold change /veh LRRC4B (11730491_at) / RFU GIMAP4 (11747438_a_at) / Fold change /veh GIMAP4 (11747438_a_at) / RFU KRT8 (11758183_x_at) / Fold change /veh KRT8 (11758183_x_at) / RFU CNN1 (11734310_a_at) / Fold change /veh CNN1 (11734310_a_at) / RFU VPS37D (11726825_at) / Fold change /veh VPS37D (11726825_at) / RFU C10orf10 (11716522_x_at) / Fold change /veh C10orf10 (11716522_x_at) / RFU KIR2DL2 /// KIR2DL4 /// KIR2DL5A /// KIR2DL5B /// KIR2DS1 /// KIR2DS2 /// KIR2DS3 /// KIR2DS4 /// KIR3DL3 /// KIR3DL3 /// KIR3DS1 (11738374_at) / Fold change /veh KIR2DL2 /// KIR2DL4 /// KIR2DL5A /// KIR2DL5B /// KIR2DS1 /// KIR2DS2 /// KIR2DS3 /// KIR2DS4 /// KIR3DL3 /// KIR3DL3 /// KIR3DS1 (11738374_at) / RFU C1QL1 (11718748_at) / Fold change /veh C1QL1 (11718748_at) / RFU TMPRSS4 (11747572_a_at) / Fold change /veh TMPRSS4 (11747572_a_at) / RFU HAMP (11756126_x_at) / Fold change /veh HAMP (11756126_x_at) / RFU RNFT2 (11725882_a_at) / Fold change /veh RNFT2 (11725882_a_at) / RFU NR4A2 (11747474_a_at) / Fold change /veh NR4A2 (11747474_a_at) / RFU ABCC12 (11746883_a_at) / Fold change /veh ABCC12 (11746883_a_at) / RFU TMEM136 (11760407_x_at) / Fold change /veh TMEM136 (11760407_x_at) / RFU CLDN22 /// WWC2 (11732394_at) / Fold change /veh CLDN22 /// WWC2 (11732394_at) / RFU HLA-DPB1 (11760878_x_at) / Fold change /veh HLA-DPB1 (11760878_x_at) / RFU SPINT1 (11716480_a_at) / Fold change /veh SPINT1 (11716480_a_at) / RFU GAP43 (11754022_s_at) / Fold change /veh GAP43 (11754022_s_at) / RFU A4GNT (11735810_at) / Fold change /veh A4GNT (11735810_at) / RFU PRB3 (11715151_x_at) / Fold change /veh PRB3 (11715151_x_at) / RFU TUBB4B (11761932_at) / Fold change /veh TUBB4B (11761932_at) / RFU CAPN14 (11732068_a_at) / Fold change /veh CAPN14 (11732068_a_at) / RFU TMCC2 (11721928_a_at) / Fold change /veh TMCC2 (11721928_a_at) / RFU IRGQ (11745062_a_at) / Fold change /veh IRGQ (11745062_a_at) / RFU FAM174B (11720279_a_at) / Fold change /veh FAM174B (11720279_a_at) / RFU TMPRSS4 (11748680_a_at) / Fold change /veh TMPRSS4 (11748680_a_at) / RFU FAM212B (11763350_a_at) / Fold change /veh FAM212B (11763350_a_at) / RFU PLEKHG5 (11743358_a_at) / Fold change /veh PLEKHG5 (11743358_a_at) / RFU ZSCAN30 (11745921_a_at) / Fold change /veh ZSCAN30 (11745921_a_at) / RFU CMKLR1 (11741424_a_at) / Fold change /veh CMKLR1 (11741424_a_at) / RFU LOC101060620 /// MAPK8IP1 (11723275_at) / Fold change /veh LOC101060620 /// MAPK8IP1 (11723275_at) / RFU SPTSSB (11747773_x_at) / Fold change /veh SPTSSB (11747773_x_at) / RFU PRSS12 (11739890_at) / Fold change /veh PRSS12 (11739890_at) / RFU BIN1 (11741810_x_at) / Fold change /veh BIN1 (11741810_x_at) / RFU WNT11 (11732464_a_at) / Fold change /veh WNT11 (11732464_a_at) / RFU C10orf10 (11716521_a_at) / Fold change /veh C10orf10 (11716521_a_at) / RFU C5orf56 (11738089_at) / Fold change /veh C5orf56 (11738089_at) / RFU CYB561 (11721691_x_at) / Fold change /veh CYB561 (11721691_x_at) / RFU ANKRD19P (11752326_a_at) / Fold change /veh ANKRD19P (11752326_a_at) / RFU OR2T12 /// OR2T33 /// OR2T8 (11738714_s_at) / Fold change /veh OR2T12 /// OR2T33 /// OR2T8 (11738714_s_at) / RFU VCAN (11748164_a_at) / Fold change /veh VCAN (11748164_a_at) / RFU JSRP1 (11732532_at) / Fold change /veh JSRP1 (11732532_at) / RFU KRTAP10-11 (11738290_x_at) / Fold change /veh KRTAP10-11 (11738290_x_at) / RFU MYO3A (11730013_a_at) / Fold change /veh MYO3A (11730013_a_at) / RFU EBF3 (11725865_a_at) / Fold change /veh EBF3 (11725865_a_at) / RFU CAMK2N1 (11719241_x_at) / Fold change /veh CAMK2N1 (11719241_x_at) / RFU C5orf56 (11738088_a_at) / Fold change /veh C5orf56 (11738088_a_at) / RFU OLFML3 (11715873_a_at) / Fold change /veh OLFML3 (11715873_a_at) / RFU LOC100653217 /// NTM (11731650_a_at) / Fold change /veh LOC100653217 /// NTM (11731650_a_at) / RFU MAPK11 (11762145_a_at) / Fold change /veh MAPK11 (11762145_a_at) / RFU FIZ1 (11724087_x_at) / Fold change /veh FIZ1 (11724087_x_at) / RFU OASL (11726364_x_at) / Fold change /veh OASL (11726364_x_at) / RFU SOX15 (11748057_x_at) / Fold change /veh SOX15 (11748057_x_at) / RFU CD79A (11719716_a_at) / Fold change /veh CD79A (11719716_a_at) / RFU HIST1H1D (11736915_at) / Fold change /veh HIST1H1D (11736915_at) / RFU CASKIN2 (11723855_a_at) / Fold change /veh CASKIN2 (11723855_a_at) / RFU LOC730098 (11760151_x_at) / Fold change /veh LOC730098 (11760151_x_at) / RFU OR4N2 (11742367_at) / Fold change /veh OR4N2 (11742367_at) / RFU PRRT2 (11749266_a_at) / Fold change /veh PRRT2 (11749266_a_at) / RFU SNX32 (11753110_a_at) / Fold change /veh SNX32 (11753110_a_at) / RFU CDHR5 (11726645_a_at) / Fold change /veh CDHR5 (11726645_a_at) / RFU RCAN1 (11760418_a_at) / Fold change /veh RCAN1 (11760418_a_at) / RFU FAM167A (11723789_a_at) / Fold change /veh FAM167A (11723789_a_at) / RFU FAM26E (11764081_at) / Fold change /veh FAM26E (11764081_at) / RFU ISYNA1 (11749810_s_at) / Fold change /veh ISYNA1 (11749810_s_at) / RFU ACY1 (11761880_at) / Fold change /veh ACY1 (11761880_at) / RFU 11764098_at / Fold change /veh 11764098_at / RFU SAMD14 (11745864_x_at) / Fold change /veh SAMD14 (11745864_x_at) / RFU NPB (11741838_a_at) / Fold change /veh NPB (11741838_a_at) / RFU TMPRSS6 (11731388_a_at) / Fold change /veh TMPRSS6 (11731388_a_at) / RFU KRTAP10-2 (11738614_at) / Fold change /veh KRTAP10-2 (11738614_at) / RFU ARHGAP8 /// PRR5-ARHGAP8 (11727945_x_at) / Fold change /veh ARHGAP8 /// PRR5-ARHGAP8 (11727945_x_at) / RFU KRTAP5-7 /// NADSYN1 (11734609_at) / Fold change /veh KRTAP5-7 /// NADSYN1 (11734609_at) / RFU RASL12 (11751679_a_at) / Fold change /veh RASL12 (11751679_a_at) / RFU CDKN2B (11736163_a_at) / Fold change /veh CDKN2B (11736163_a_at) / RFU PRF1 (11729649_at) / Fold change /veh PRF1 (11729649_at) / RFU, ZNF638 /// ZNF638-IT1 / Fold change vs veh, ZNF638 /// ZNF638-IT1 / RFU, PANK3 / Fold change vs veh, PANK3 / RFU, SH3YL1 / Fold change vs veh, SH3YL1 / RFU, ZEB2 / Fold change vs veh, ZEB2 / RFU, NRIP1 / Fold change vs veh, NRIP1 / RFU, PTTG1IP / Fold change vs veh, PTTG1IP / RFU, CAPN2 / Fold change vs veh, CAPN2 / RFU, MED14 / Fold change vs veh, MED14 / RFU, SNORA58 / Fold change vs veh, SNORA58 / RFU, C1orf63 / Fold change vs veh, C1orf63 / RFU, LRRFIP1 / Fold change vs veh, LRRFIP1 / RFU, NDUFAF7 / Fold change vs veh, NDUFAF7 / RFU, SLC12A2 / Fold change vs veh, SLC12A2 / RFU, IBTK / Fold change vs veh, IBTK / RFU, ESF1 / Fold change vs veh, ESF1 / Fold change vs veh, TMEM50B / RFU, TAOK1 / Fold change vs veh, TAOK1 / RFU, ACBD3 / Fold change vs veh, ACBD3 / RFU, TMA16 / Fold change vs veh, TMA16 / RFU, RWDD3 / Fold change vs veh, RWDD3 / RFU, BCAT1 / Fold change vs veh, BCAT1 / RFU, EDEM3 / Fold change vs veh, EDEM3 / RFU, TMEM33 / Fold change vs veh, TMEM33 / RFU, WDR75 / Fold change vs veh, WDR75 / RFU, AHCTF1 / Fold change vs veh, AHCTF1 / RFU, TFRC / Fold change vs veh, TFRC / RFU, ZDHHC17 / Fold change vs veh, ZDHHC17 / RFU, NOM1 / Fold change vs veh, NOM1 / RFU, ARL8B / Fold change vs veh, ARL8B / RFU, ZBTB11 / Fold change vs veh, ZBTB11 / RFU, TAMM41 / Fold change vs veh, TAMM41 / RFU, KIAA1704 /// LOC100996395 / Fold change vs veh, KIAA1704 /// LOC100996395 / RFU, ING1 / Fold change vs veh, ING1 / RFU, TRMT61B / Fold change vs veh, TRMT61B / RFU, FUBP3 / Fold change vs veh, FUBP3 / RFU, TP53 / Fold change vs veh, TP53 / RFU, TNKS2 / Fold change vs veh, TNKS2 / RFU, ZFP14 / Fold change vs veh, ZFP14 / RFU, ACTR2 / Fold change vs veh, ACTR2 / RFU, PPP3R1 / Fold change vs veh, PPP3R1 / RFU, PIK3R1 / Fold change vs veh, PIK3R1 / RFU, HNRNPA1 / Fold change vs veh, HNRNPA1 / RFU, RNF170 / Fold change vs veh, RNF170 / RFU, ZNF28 / Fold change vs veh, ZNF28 / RFU, RNGTT / Fold change vs veh, RNGTT / RFU, OGT / Fold change vs veh, OGT / RFU, BRD1 / Fold change vs veh, BRD1 / RFU, MARS / Fold change vs veh, MARS / RFU, ZNF655 / Fold change vs veh, ZNF655 / RFU, FAHD1 / Fold change vs veh, FAHD1 / RFU, BDP1 / Fold change vs veh, BDP1 / RFU, LRRCC1 / Fold change vs veh, LRRCC1 / RFU, ARID1A / Fold change vs veh, ARID1A / RFU, ZNF146 / Fold change vs veh, ZNF146 / RFU, ZNF330 / Fold change vs veh, ZNF330 / RFU, GPN3 / Fold change vs veh, GPN3 / RFU, C9orf123 / Fold change vs veh, C9orf123 / RFU, N4BP2L2 / Fold change vs veh, N4BP2L2 / RFU, ARFIP1 / Fold change vs veh, ARFIP1 / RFU, FAM179B / Fold change vs veh, FAM179B / RFU, BCL10 / Fold change vs veh, BCL10 / RFU, UHRF1BP1L / Fold change vs veh, UHRF1BP1L / RFU, BET1 / Fold change vs veh, BET1 / RFU, CNOT2 / Fold change vs veh, CNOT2 / RFU, ZNF268 / Fold change vs veh, ZNF268 / Fold change vs veh, ZNF507 / RFU, DGCR2 / Fold change vs veh, DGCR2 / RFU, WDSUB1 / Fold change vs veh, WDSUB1 / Fold change vs veh, HSP90B1 /// MIR3652 / RFU, ADSS / Fold change vs veh, ADSS / RFU, GK / Fold change vs veh, GK / RFU, ZNF148 / Fold change vs veh, ZNF148 / RFU, TAF9 / Fold change vs veh, TAF9 / RFU, SLC1A5 / Fold change vs veh, SLC1A5 / RFU, SLMO2 / Fold change vs veh, SLMO2 / RFU, ABCC4 / Fold change vs veh, ABCC4 / RFU, LOC101060439 /// RAP1B / Fold change vs veh, LOC101060439 /// RAP1B / RFU, RFX7 / Fold change vs veh, RFX7 / RFU, GTPBP10 / Fold change vs veh, GTPBP10 / RFU, CNEP1R1 / Fold change vs veh, CNEP1R1 / RFU, BIVM-ERCC5 /// ERCC5 / Fold change vs veh, BIVM-ERCC5 /// ERCC5 / RFU, ILF3 / Fold change vs veh, ILF3 / RFU 11762660_at / Fold change /veh 11762660_at / RFU VCAN (11757783_s_at) / Fold change /veh VCAN (11757783_s_at) / RFU DDX43 (11728927_at) / Fold change /veh DDX43 (11728927_at) / RFU KRT8 (11758188_x_at) / Fold change /veh KRT8 (11758188_x_at) / RFU NKD1 (11759106_at) / Fold change /veh NKD1 (11759106_at) / RFU SRD5A1 (11742802_a_at) / Fold change /veh SRD5A1 (11742802_a_at) / RFU TPSAB1 /// TPSB2 (11721975_s_at) / Fold change /veh TPSAB1 /// TPSB2 (11721975_s_at) / RFU GSTM3 (11746129_a_at) / Fold change /veh GSTM3 (11746129_a_at) / RFU IL23R (11737362_x_at) / Fold change /veh IL23R (11737362_x_at) / RFU TMEM51 (11727254_a_at) / Fold change /veh TMEM51 (11727254_a_at) / RFU PIWIL2 (11732686_x_at) / Fold change /veh PIWIL2 (11732686_x_at) / RFU ORM1 (11744905_x_at) / Fold change /veh ORM1 (11744905_x_at) / RFU CCDC152 (11743942_at) / Fold change /veh CCDC152 (11743942_at) / RFU ECM1 (11717891_a_at) / Fold change /veh ECM1 (11717891_a_at) / RFU IL23R (11748794_a_at) / Fold change /veh IL23R (11748794_a_at) / RFU TNFAIP8L3 (11732012_x_at) / Fold change /veh TNFAIP8L3 (11732012_x_at) / RFU MBOAT4 (11741988_at) / Fold change /veh MBOAT4 (11741988_at) / RFU 11764193_at / Fold change /veh 11764193_at / RFU TMEM53 (11763286_at) / Fold change /veh TMEM53 (11763286_at) / RFU MAGEB2 (11727129_at) / Fold change /veh MAGEB2 (11727129_at) / RFU TMEM200A (11744735_a_at) / Fold change /veh TMEM200A (11744735_a_at) / RFU CCDC152 (11751479_a_at) / Fold change /veh CCDC152 (11751479_a_at) / RFU FAM211A (11726209_a_at) / Fold change /veh FAM211A (11726209_a_at) / RFU RGS16 (11746705_a_at) / Fold change /veh RGS16 (11746705_a_at) / RFU VCAN (11755009_s_at) / Fold change /veh VCAN (11755009_s_at) / RFU RHOB (11743442_s_at) / Fold change /veh RHOB (11743442_s_at) / RFU RGS16 (11720943_a_at) / Fold change /veh RGS16 (11720943_a_at) / RFU RGS16 (11720944_at) / Fold change /veh RGS16 (11720944_at) / RFU, VPS4B / Fold change vs veh, VPS4B / RFU, CREB1 / Fold change vs veh, CREB1 / RFU, DNAJC13 / Fold change vs veh, DNAJC13 / RFU, GNAQ / Fold change vs veh, GNAQ / RFU, CDK5R1 / Fold change vs veh, CDK5R1 / RFU, ZRANB3 / Fold change vs veh, ZRANB3 / RFU, CUL4A / Fold change vs veh, CUL4A / RFU, CCNY / Fold change vs veh, CCNY / RFU, UFL1 / Fold change vs veh, UFL1 / RFU, COG3 / Fold change vs veh, COG3 / RFU, DIAPH2 / Fold change vs veh, DIAPH2 / RFU, SKA2 / Fold change vs veh, SKA2 / RFU, AFF3 / Fold change vs veh, AFF3 / RFU, LMF1 / Fold change vs veh, LMF1 / RFU, IPO11 / Fold change vs veh, IPO11 / RFU, DFFB / Fold change vs veh, DFFB / RFU, FOXP1 / Fold change vs veh, FOXP1 / RFU, CARD8 / Fold change vs veh, CARD8 / RFU, STRN3 / Fold change vs veh, STRN3 / RFU, ADK / Fold change vs veh, ADK / RFU, RASSF2 / Fold change vs veh, RASSF2 / RFU, WIPF1 / Fold change vs veh, WIPF1 / RFU, LARP1B / Fold change vs veh, LARP1B / RFU, RASA1 / Fold change vs veh, RASA1 / RFU, RB1 / Fold change vs veh, RB1 / RFU, PPFIA1 / Fold change vs veh, PPFIA1 / RFU, MAT2A / Fold change vs veh, MAT2A / RFU, CCT5 / Fold change vs veh, CCT5 / RFU, WDR92 / Fold change vs veh, WDR92 / RFU, CUX1 / Fold change vs veh, CUX1 / RFU, TTC7A / Fold change vs veh, TTC7A / RFU, TMEM135 / Fold change vs veh, TMEM135 / RFU, DEPTOR / Fold change vs veh, DEPTOR / RFU, CPM / Fold change vs veh, CPM / RFU, DNAJB6 / Fold change vs veh, DNAJB6 / RFU, CACNA2D3 / Fold change vs veh, CACNA2D3 / RFU, DTX4 / Fold change vs veh, DTX4 / RFU, TFCP2 / Fold change vs veh, TFCP2 / RFU, GMCL1 /// GMCL1P1 / Fold change vs veh, GMCL1 /// GMCL1P1 / RFU, AEBP2 / Fold change vs veh, AEBP2 / RFU, SNHG1 /// SNORD22 /// SNORD25 /// SNORD26 /// SNORD27 /// SNORD28 /// SNORD29 /// SNORD31 / Fold change vs veh, SNHG1 /// SNORD22 /// SNORD25 /// SNORD26 /// SNORD27 /// SNORD28 /// SNORD29 /// SNORD31 / Fold change (Aza/veh), C12orf56 (ProbeSet 11735607_a_at) / Fold change (ACY-1035/veh), C12orf56 (ProbeSet 11735607_a_at) / Fold change (Aza/veh), FGFR1OP (ProbeSet 11751329_s_at) / Fold change (ACY-1035/veh), FGFR1OP (ProbeSet 11751329_s_at) / Fold change (Aza/veh), VPS36 (ProbeSet 11739960_a_at) / Fold change (ACY-1035/veh), VPS36 (ProbeSet 11739960_a_at) / RFU SYPL1 (11715823_x_at) / Fold change /veh SYPL1 (11715823_x_at) / RFU IGFBP7 (11715501_s_at) / Fold change /veh IGFBP7 (11715501_s_at) / RFU REEP3 (11722064_at) / Fold change /veh REEP3 (11722064_at) / RFU IGLL1 (11728026_x_at) / Fold change /veh IGLL1 (11728026_x_at): dose or concentration left out as unconfirmed
Conditions: ProbeSet 11747888_a_at; LIST D

Nc1ncn([C@@H]2O[C@H](CO)[C@@H](O)[C@H]2O)c(=O)n1 [azacitidine]
Fold change vs veh, SH3YL1: 0.79
